From PubChem BioAssay (NCI) come the findings set out here.

What all share (test): growth of human tumour cells (NCI), 48 h
In assay [1] the test system is ACHN renal.
For assay [2], the system named is CAKI-1 renal.
Assay [3] relates to CCRF-CEM leukemia.
Assay [4] concerns HCC-2998 colon.
Assay [5] relates to HT29 colon.
The subject of assay [6] is IGROV1 ovarian.
Assay [7] relates to MDA-MB-435.
For assay [8], the system named is SF-539 CNS.
For assay [9], the system named is UACC-257 melanoma.
For assay [10], the system named is RXF 393 renal.

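Results reflect a 48-hour exposure of cells in 96-well plates to compound at five concentrations. TGI: concentration producing complete growth inhibition.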

For `C=CCOc1ccccc1C1(O)c2ccccc2C2=NCCCN21` (stereo not drawn), the TGI is 83.9 µM in assay [1]; more than 100 µM in [2]; more than 100 µM in [3]; 30.3 µM in assay [4]; 36.2 µM in assay [5]; 44.7 µM in assay [6]. Further, the TGI is more than 100 µM in [7], 39.5 µM in assay [8] and more than 100 µM in assay [9].
Consider `O=C(Nc1nnc(-c2c(Cl)c(Cl)c(Cl)c(Cl)c2-c2nc3cc(C(=O)c4ccccc4)ccc3[nH]2)o1)c1ccc(Cl)cc1`, for which the TGI in assay [1], in [2], in assay [3], in assay [5], in assay [6] and in assay [7] was more than 100 µM in each case. Also, the TGI in assay [10], in [8] and in assay [9] was more than 100 µM each time.
On to `COC(=O)[C@@H]1CC(C(CN)c2cn(C(=O)OC(C)(C)C)c3ccccc23)C(=O)N1C(=O)OC(C)(C)C` (stereo partly drawn), for which the TGI is more than 100 µM in assay [1]; 76.3 µM in assay [2]; 34.8 µM in assay [3]; 55.2 µM in assay [5]; 58.1 µM in [6]; 50.7 µM in [7]. Besides, the figures for the TGI in assay [10], in assay [8] and in assay [9] were 46.2 µM, 28.3 µM and 32.2 µM, respectively.
For `CCCC1(CCC)c2cc(/C=N\O)ccc2-c2ccc(-c3ccc(C(C)(C)C)cc3)cc21`, the TGI is more than 100 µM in assay [1]; more than 100 µM in [2]; 68.8 µM in [3]; more than 100 µM in [4]; more than 100 µM in assay [5]; more than 100 µM in [6]. Moreover, the TGI in assay [8] and in assay [9] was more than 100 µM throughout.
Regarding `O=c1[nH]c(=O)n(C2CC(O)C(CO)O2)cc1C#Cc1ccc(F)cc1` (stereo not drawn), the TGI in assay [1], in assay [2], in assay [3], in [4], in assay [5] and in [6] was more than 100 µM each time. For the same molecule, the TGI in [8] and in assay [9] was more than 100 µM each time.
Turning to `Cc1ccc(S(=O)(=O)N/N=C2/CC3CCC4CC2CC34)cc1` (stereo not drawn), the TGI in [1], in assay [2], in assay [3], in assay [4], in assay [5] and in assay [6] was more than 100 µM each time. Moreover, the TGI in assay [7], in [8] and in assay [9] was more than 100 µM in each case.
With `O=C1CCCCC/C1=C\c1ccccc1`, the TGI in assay [1], in [2], in assay [4], in [5], in [6] and in assay [7] was more than 100 µM each time. The molecule also displayed a TGI in assay [9] of more than 100 µM.
As for `CC(=O)C(=[N+]=[N-])C(=O)N(C)CCC#N`, the TGI in [1], in assay [3], in assay [5], in assay [6], in [7] and in assay [10] was more than 10 µM throughout. In addition, the TGI in assay [8] and in assay [9] was more than 10 µM in each case.
For the molecule `COc1ccccc1NCc1cccc2c(=O)c3ccc(Cl)cc3oc12`, the TGI in [1], in assay [2], in assay [3], in assay [4], in assay [5] and in assay [6] was more than 100 µM in each case. Besides, the TGI in assay [7], in assay [8] and in assay [9] was more than 100 µM throughout.
With `N#Cc1c(-c2ccc(Cl)cc2)c2c(N=Nc3c(O)ccc4ccccc34)[nH]nc2[nH]c1=O`, the TGI in assay [1] was 0.492 µM; in assay [2] it was 1.26 µM; in assay [4], 0.89 µM; in assay [5], 1.87 µM; in [6], 1.14 µM; in assay [10] it was 0.878 µM. In assay [8], this molecule gave a TGI of 1.37 µM.
As for `OC12c3ccccc3C3CCC4(OCCO4)C3C1c1ccccc12` (stereo not drawn), the TGI in [1], in assay [2], in [3], in assay [4], in [5] and in assay [6] was more than 100 µM in each case. Also, the TGI in assay [10], in assay [8] and in assay [9] was more than 100 µM in each case.
`Cc1ccc2oc3c(c(Br)c(Br)n3C)c(=O)c2c1`: the TGI in assay [1] was 32.1 µM; in [2] it was 63.8 µM; in [3] it was more than 100 µM; in assay [5], more than 100 µM; in assay [6] it was more than 100 µM; in assay [7], more than 100 µM. The figures for the TGI in [10], in [8] and in assay [9] were 31.4 µM, 37.3 µM and more than 100 µM, respectively.
Regarding `COc1ccc2[nH]c3c(C)cc([N+](=O)[O-])c(C)c3c2c1`, the TGI in assay [1] was 63.1 µM; in assay [2], more than 100 µM; in assay [3] it was 56.4 µM; in [4], 67.7 µM; in assay [5], 83.8 µM; in [6], more than 100 µM. The TGI is 41.9 µM in [10], more than 100 µM in [8] and more than 100 µM in assay [9].
Consider `NC(=O)c1c(NC=O)ncn1C1OCC(O)C(O)C1O` (stereo not drawn), for which the TGI in assay [1], in assay [2], in assay [3], in assay [5], in assay [6] and in assay [7] was more than 100 µM in each case. Further, the TGI in [10], in [8] and in assay [9] was more than 100 µM each time.
Take `CC1(C)CC(=O)c2c(nc3c(ccc4ccccc43)c2-c2ccc(NC(=O)CCCCC(=O)Nc3ccc(-c4c5c(nc6c4ccc4ccccc46)CC(C)(C)CC5=O)cc3)cc2)C1`: the TGI in assay [1] was 69.1 µM; in assay [2], more than 100 µM; in [3] it was 78.3 µM; in assay [5], 62.3 µM; in assay [6], 37.5 µM; in assay [7], more than 100 µM. The TGI in [10] was more than 100 µM; in assay [8] it was 46.6 µM; in [9] it was more than 100 µM.
